Test results reported in ChEMBL document CHEMBL4495565, “Cytopathic SARS-Cov2 screening on VERO-E6 cells in a large repurposing effort” (2020).
Where “and” joins values, the source holds several entries; their conditions need not be identical. Equal values may be shown once. Where a name gives a salt, the structure may show the parent alone. Square brackets hold non-standard residues; d marks the D form. Peptide text beside a SMILES is read from it. * marks the point of attachment. dPhe(4-NHCONH2) = NC(=O)Nc1ccc(C[C@@H](N)C(=O)O)cc1; Dihydroorotyl(S) = O=C1C[C@@H](C(=O)*)NC(=O)N1; dPhe(4-Cl) = N[C@H](Cc1ccc(Cl)cc1)C(=O)O; Phe(4-NH2) = Nc1ccc(C[C@H](N)C(=O)O)cc1; d2Nal = N[C@H](Cc1ccc2ccccc2c1)C(=O)O; Lys(iPr) = CC(C)NCCCC[C@H](N)C(=O)O; d3Pal = N[C@H](Cc1cccnc1)C(=O)O

How the values were obtained:
SARS-CoV-2 = experiment: microbe, parasite or virus in culture; type: functional, organism-based, Chlorocebus sabaeus, Vero C1008
in vitro = details: chlorocebus sabaeus
[1] = Severe acute respiratory syndrome coronavirus 2, Vero C1008, 48 h
[2] = VERO-E6 cells (Vero C1008), uninfected, CC50

Row | Structure (SMILES) | CC50 at 48 h (in vitro; [2]) [µM] | further results
1 | CN(Cc1cnc2nc(N)nc(N)c2n1)c1ccc(C(=O)N[C@@H](CCC(=O)O)C(=O)O)cc1 [METHOTREXATE] | 0.05 | IC50 (SARS-CoV-2; [1]): 0.05 µM
2 | CC(=O)N[C@H](Cc1ccc2ccccc2c1)C(=O)N[C@H](Cc1ccc(Cl)cc1)C(=O)N[C@H](Cc1cccnc1)C(=O)N[C@@H](CO)C(=O)N[C@@H](Cc1ccc(NC(=O)[C@@H]2CC(=O)NC(=O)N2)cc1)C(=O)N[C@H](Cc1ccc(NC(N)=O)cc1)C(=O)N[C@@H](CC(C)C)C(=O)N[C@@H](CCCCNC(C)C)C(=O)N1CCC[C@H]1C(=O)N[C@H](C)C(N)=O [DEGARELIX] (Ac-[d2Nal][dPhe(4-Cl)][d3Pal]S[Phe(4-NH2)](Dihydroorotyl(S))[dPhe(4-NHCONH2)]L[Lys(iPr)]P[dA]-NH2) | > 33 | IC50 (SARS-CoV-2; [1]): 20.7 µM
3 | C#CCC(Cc1cnc2nc(N)nc(N)c2n1)c1ccc(C(=O)N[C@@H](CCC(=O)O)C(=O)O)cc1 (stereo partly drawn) [PRALATREXATE] | – | IC50 (SARS-CoV-2; [1]): 0.06 µM
4 | OCCNC1CCCc2c1[nH]c1ccc(-c3ccccc3)cc21 (stereo not drawn) | > 33 | –
5 | CCCCN(CCCC)CCC(O)c1cc2c(Cl)cc(Cl)cc2c2cc(C(F)(F)F)ccc12 (stereo not drawn) [HALOFANTRINE] | > 33 | –
6 | c1cncc(CN2CCC(n3ncc4c(N5CCOCC5)nc(-c5ccc6[nH]ccc6c5)nc43)CC2)c1 | 9.55 | –
7 | O=C1C(=Cc2cccnc2)C(=O)c2ccccc21 | – | IC50 (SARS-CoV-2; [1]): > 33 µM
8 | CN1CCN(CCCN2c3ccccc3Sc3ccc(C(F)(F)F)cc32)CC1 [TRIFLUOPERAZINE HYDROCHLORIDE] | > 33 | –
9 | C[C@H]1Cc2c([nH]c3cc(Cl)c(F)cc23)[C@@]2(N1)C(=O)Nc1ccc(Cl)cc12 [CIPARGAMIN] | > 33 | IC50 (SARS-CoV-2; [1]): > 33 µM
10 | O=C1OC2(c3ccc(O)cc3Oc3cc(O)ccc32)c2ccccc21 [FLUORESCEIN] | > 33 | IC50 (SARS-CoV-2; [1]): 0.67 µM
11 | COC(=O)c1ccccc1-c1c2ccc(=N)cc-2oc2cc(N)ccc12 [RHODAMINE123] | > 33 | IC50 (SARS-CoV-2; [1]): 0.8 µM
12 | CC(C)n1cnc2c(NCCc3ccc(O)cc3)nc(-c3csc4ccccc34)nc21 | 12.6 | IC50 (SARS-CoV-2; [1]): > 33 µM
13 | O=S(=O)(NCC1CC1)c1ccc(Nc2nccc(N3CCCc4cc(O)ccc43)n2)cc1 | 0.74 | –
14 | Cc1ccc(Oc2nc3cc(-c4ccc(-c5ccccc5)cc4)c(Cl)cc3[nH]2)cc1C(=O)O | 0.03 | IC50 (SARS-CoV-2; [1]): > 33 µM
15 | CCN(CC)CCOc1ccc(C(=C(Cl)c2ccccc2)c2ccccc2)cc1 [CLOMIPHENE CITRATE] | – | CC50 at 48 h (in vitro; vero c1008, CC50): > 33 µM
16 | COc1ccc2c(c1)[C@]1(C[C@H]1c1ccc3c(/C=C/c4ccc(CN5C[C@@H](C)O[C@@H](C)C5)cc4)n[nH]c3c1)C(=O)N2 [OCIFISERTIB] | > 33 | –
17 | COc1ccccc1[C@H](Cn1c(=O)n(C(C)(C)C(=O)O)c(=O)c2c(C)c(-c3ncco3)sc21)OC1CCOCC1 [FIRSOCOSTAT] | 0.11 | –
18 | CC[C@@]1([C@H]2O[C@H]([C@H]3O[C@@](O)(CO)[C@H](C)C[C@@H]3C)C[C@H]2C)CC[C@H]([C@@]2(C)CC[C@]3(C[C@H](O)[C@@H](C)[C@@H]([C@H](C)[C@H](OC)[C@@H](C)C(=O)O)O3)O2)O1 [MONENSIN SODIUM] | – | IC50 (SARS-CoV-2; [1]): 3.18 µM
19 | N=C(Nc1ccc(I)cc1)NC1C2CC3CC(C2)CC1C3 (stereo not drawn) | > 33 | –
20 | Nc1c[nH]c(=O)c2cc(-c3ccccc3)sc12 | > 33 | IC50 (SARS-CoV-2; [1]): 5.26 µM
21 | CCN(CC)CCCCNc1ncc2cc(-c3c(Cl)cccc3Cl)c(NC(=O)NC(C)(C)C)nc2n1 | 12.7 | IC50 (SARS-CoV-2; [1]): > 33 µM
22 | CC(C)C(=O)OCC(=O)[C@@]12O[C@H](C3CCCCC3)O[C@@H]1C[C@H]1[C@@H]3CCC4=CC(=O)C=C[C@]4(C)[C@H]3[C@@H](O)C[C@@]12C [CICLESONIDE] | – | IC50 (SARS-CoV-2; [1]): > 33 µM
23 | Cc1cc(C)c2c(c1)[C@@H](N(Cc1cc(C(F)(F)F)cc(C(F)(F)F)c1)c1nnn(C)n1)CCCN2C[C@H]1CC[C@H](C(=O)O)CC1 [EVACETRAPIB] | > 33 | IC50 (SARS-CoV-2; [1]): > 33 µM
24 | CN1[C@@H]2CC[C@H]1C[C@@H](OC(=O)c1cc(Cl)cc(Cl)c1)C2 [BEMESETRON] | 0.02 | IC50 (SARS-CoV-2; [1]): > 33 µM
25 | Cc1c(O)cccc1C(=O)N[C@@H](CSc1ccccc1)[C@H](O)CN1C[C@H]2CCCC[C@H]2C[C@H]1C(=O)NC(C)(C)C [NELFINAVIR MESYLATE] | > 33 | –

Row | Structure (SMILES) | CC50 at 48 h (in vitro; [2]) [µM] | further results
26 | CCN(CC)c1ccc2cc(-c3nc4ccccc4[nH]3)c(=O)oc2c1 | > 33 | IC50 (SARS-CoV-2; [1]): 0.36 µM
27 | CC(C)(Sc1cc(C(C)(C)C)c(O)c(C(C)(C)C)c1)Sc1cc(C(C)(C)C)c(OC(=O)CCC(=O)O)c(C(C)(C)C)c1 [SUCCINOBUCOL] | 10.2 | –
28 | C[C@H]1CCC/C=C/[C@@H]2C[C@H](O)C[C@H]2[C@H](O)/C=C/C(=O)O1 [BREFELDIN A] | 0.06 | –
29 | CCc1c(-c2ccc3[nH]ncc3c2)cnc(N)c1-c1ccc(O)cc1 | > 33 | IC50 (SARS-CoV-2; [1]): > 33 µM
30 | CCN(CC)CCO[C@H]1CC[C@@]2(C)C(=CC[C@@H]3[C@@H]2CC[C@]2(C)C(=O)CC[C@@H]32)C1 | 3.43 | –
31 | CC1=NN(c2ccc(C)c(C)c2)C(=O)/C1=N\Nc1cccc(-c2cccc(C(=O)O)c2)c1O [ELTROMBOPAG] | 3.26 | IC50 (SARS-CoV-2; [1]): > 33 µM
32 | CCN1CCC(n2cc(CNc3cc(Cl)c4ncc(C#N)c(Nc5ccc(F)c(Cl)c5)c4c3)nn2)CC1 | – | IC50 (SARS-CoV-2; [1]): 16.6 µM
33 | Cn1nc(C(C)(C)C)cc1C(=O)N[C@@H](Cc1cccc(Cl)c1)C(=O)NCC#N | 0.03 | –
34 | CCCCn1c(NC(=O)c2cccs2)c(C#N)c2nc3ccccc3nc21 | – | IC50 (SARS-CoV-2; [1]): 19.7 µM
35 | Cc1ccc(NC(=O)c2ccc(CN3CCN(C)CC3)cc2)cc1Nc1nc(-c2cccnc2)cs1 [MASITINIB] | > 33 | –
36 | Nc1nc(NC[C@H]2CC[C@H](CNS(=O)(=O)c3cccc4ccccc34)CC2)nc2ccccc12 [CGP-71683A] | 4.38 | –
37 | Cn1cc(-c2ccncc2)c(-c2ccc(OCc3ccc4ccccc4n3)cc2)n1 [MARDEPODECT] | > 33 | –
38 | CC(C)(C)NCc1ccc(Nc2ccnc3cc(Cl)ccc23)cc1O [GSK-369796] | 12.4 | –
39 | COc1cc2c(N3CCN(C(=O)Nc4ccc(OC(C)C)cc4)CC3)ncnc2cc1OCCCN1CCCCC1 [TANDUTINIB] | > 33 | –
40 | Cc1cccc(Nc2nc(-c3ccncc3)cs2)c1 | 31.5 | –
41 | Nc1nc2c(ncn2[C@@H]2O[C@H](CO)[C@@H](O)[C@H]2O)c(=S)[nH]1 [THIOGUANOSINE] | > 33 | –
42 | Nc1ccc(C(=O)Nc2cccc(-c3nc(N4CCOCC4)c4oc5ncccc5c4n3)c2)cn1 | 0.01 | –
43 | Cn1c(Nc2ccc(C(F)(F)F)cc2)nc2cc(Oc3ccnc(-c4ncc(C(F)(F)F)[nH]4)c3)ccc21 [RAF-265] | 9.19 | –
44 | N#Cc1cccc(C#N)c1-c1nc2c3ccc(Cl)cc3c3ccccc3c2[nH]1 | > 33 | –
45 | COc1cc(NCc2ccc3nc(N)nc(N)c3c2C)cc(OC)c1OC [TRIMETREXATE] | 1.99 | –
46 | O=C1Nc2cc(Br)ccc2/C1=C1/Nc2ccccc2/C1=N\O [6BIO] | > 33 | –
47 | COc1cc2c(NC3CCN(C(C)C)CC3)nc(N3CCC(F)(F)CC3)nc2cc1OCCCN1CCCC1 | > 33 | –
48 | Nc1ccc2cc3ccc(N)cc3nc2c1 [PROFLAVINE] | 2.67 | –
49 | C[C@@H]1C[C@@H]([C@H](O)CC2CC(=O)NC(=O)C2)C(=O)[C@@H](C)C1 [CYCLOHEXIMIDE] | 10.2 | –
50 | O=C(O)Cc1cccc(OCCCN(Cc2cccc(C(F)(F)F)c2Cl)CC(c2ccccc2)c2ccccc2)c1 | > 33 | –

Row | Structure (SMILES) | CC50 at 48 h (in vitro; [2]) [µM] | further results
51 | O=C(Nc1ccc(Cl)c(Cl)c1)Nc1ccc(Cl)c(Cl)c1 | > 33 | –
52 | Oc1c(Cl)cc(Cl)cc1Sc1cc(Cl)cc(Cl)c1O [BITHIONOL] | 9.94 | –
53 | CC(C)COCC(CN(Cc1ccccc1)c1ccccc1)N1CCCC1 (stereo not drawn) | 23.4 | –
54 | CC(C)c1cnn2c(NCc3ccccc3)cc(NCCCCCCN)nc12 | > 33 | –
55 | CC1(N2CCC(n3c([C@@H]4CCCNC4)nc4ccccc43)CC2)CCCCCCC1 | > 33 | –
56 | Cc1[nH]c(/C=C2\C(=O)Nc3ccc(S(=O)(=O)Cc4c(Cl)cccc4Cl)cc32)c(C)c1C(=O)N1CCC[C@@H]1CN1CCCC1 [PHA-665752] | > 33 | –
57 | CC(C)(O)CNc1ncc(-c2ccnc(Nc3ccnc(Cl)c3)n2)c(CC2CC2)n1 | 26.8 | –
58 | Cc1ccc(C(=O)Nc2cccc(C(F)(F)F)c2)cc1Nc1nc(-c2cccnc2)nc2c1cnn2C | 0.07 | –
59 | CN1CCN(CC/C=C2\c3ccccc3Sc3ccc(S(=O)(=O)N(C)C)cc32)CC1 | > 33 | –
60 | Cc1cc(O[C@@H](CCC(F)(F)F)c2ccc(C(=O)NCCC(=O)O)cc2)cc(C)c1-c1ccc(C(C)(C)C)cc1 [ADOMEGLIVANT] | > 33 | –
61 | O=C(CCCN1CCC2(CC1)C(=O)N(Cc1cccc(F)c1)CN2c1ccccc1)c1ccc(F)cc1 | 27.4 | –
62 | COc1cc2ncnc(Nc3cccc(Br)c3)c2cc1OC | 13.2 | –
63 | CCN(CC)CCOc1ccc2c(c1)C(=O)c1cc(OCCN(CC)CC)ccc1-2 [TILORONE] | 3.08 | –
64 | COc1ccc2cc1Oc1ccc(cc1)C[C@H]1c3cc(c(OC)cc3CCN1C)Oc1c(OC)c(OC)cc3c1[C@H](C2)N(C)CC3 [FANCHININ] | > 33 | –
65 | O=[N+]([O-])c1ccc(NN=Cc2sc(N3CCOCC3)nc2-c2ccccc2)c(S(=O)(=O)Nc2ccccc2Cl)c1 | 0.43 | –
66 | O=C(Nc1ccc(Cl)cc1)Nc1ccc(Cl)c(Cl)c1 [TRICLOCARBAN] | 3.08 | –
67 | Nc1nc(N)c2nc(CNc3ccc(C(=O)N[C@@H](CCC(=O)O)C(=O)O)cc3)cnc2n1 [AMINOPTERIN] | 0.03 | –
68 | COc1c(C)c2c(c(O)c1C/C=C(\C)CCC(=O)O)C(=O)OC2 [MYCOPHENOLIC ACID] | – | IC50 (SARS-CoV-2; vero c1008): 3.43 µM and 11.1 µM and > 33 µM
69 | CC(C)N1CCN(c2ccc(C(=O)c3c(-c4ccc(O)cc4)sc4cc(O)ccc34)cc2)CC1 | > 33 | –
70 | Nc1ncnc2c1ncn2[C@@H]1CC[C@@H](O)[C@H]1O | 15.7 | –
71 | O=C(NCCN1CCC2(CC1)C(=O)NCN2c1cccc(F)c1)c1ccc2ccccc2c1 | > 33 | –
72 | Nc1ncc(-c2ccnc(Nc3ccncc3)n2)c(CC2CC2)n1 | 2.11 | –
73 | Cc1nc(N)nc(N)c1-c1ccc(Cl)c(Cl)c1 [METOPRINE] | 0.12 | –
74 | CN(C)C(=O)C(CCN1CCC(O)(c2ccc(Cl)cc2)CC1)(c1ccccc1)c1ccccc1 [LOPERAMIDE] | > 33 | –
